Data as given in patent US20070155827A1, “USE OF BENZO-FUSED HETEROCYCLE SULFAMIDE DERIVATIVES FOR THE TREATMENT OF DEPRESSION” (priority 2005, published 2007).
“Also recorded” adds a separate entry of the source. Where two headings read alike, the source gives them in different places.

Tested on: CH3/HeJ mice
Assay: Mouse Tail Suspension Assay (Acute), TST
Assay type: in vivo
Conditions: p.o.; for ED50: Mus musculus, po, 7 min, 7-min session
Procedure: In the tail suspension test (TST) for evaluating compounds for anti-depressant activity, mice are suspended by their tails to a metal or plastic rod using clip or scotch tape. The test is usually quite short, 5-7 min, and the amount of time the mice spend immobile is recorded either manually or with an automated device. Agents which have antidepressant activity, decrease the duration of immobility of mice in this test.
The basic apparatus for the tail suspension assay consisted of a yellow plastic chamber (91×45×10 cm) divided for four arenas 25, 20, 20 and 25 cm wide separated by yellow plastic walls 0.75 cm thick. Mice were suspended by their tails using a rubber clip (7 cm long) attached to the plastic rod that was placed on the top of a testing chamber half way through its deep dimension. Each experimental session was videotaped and analyzed for four animals in the real time by computer software (“Depression Scan” Clever Sys Inc.). The computer justification of immobility was calibrated with the use of animals dosed with lorazepam while justification of movement was calibrated with the high dose of desipramine treated animals. Control, vehicle treated animals and animals treated with Compound #8 were analyzed under the calibrated settings. The settings were adjusted separately for dark (CH3/HeJ and C57Bl/6J strains) and white mice (Balb/cJ and A/J strains). A yellow background was used for dark mice and a blue background was used to record movements of white mice.
The ability of a test compound to decrease the duration of immobility, or increase mobility was measured using the TST procedure described above. Acute treatment with clinically effective antidepressants and/or novel compounds that have potential antidepressant properties decrease the duration of immobility and at the same time increases mobility in the TST.
Data were analyzed using GraphPad Prism software (GraphPad Software, Inc. San Diego, Calif.). For the comparison of the effect of different doses for various drugs on immobility in the TST one-way analyses of variance (ANOVA) were used followed by Dunnett's multiple comparison test. […] The ED50 and Emax values were compared using two-way ANOVA and Bonferroni post-hoc test.
Positive controls included duloxetine (DLX), venlafaxine (VLX)and desipramine (DMI) which were dissolved in 0.5% methylcellulose and lorazepam (LOR) which was suspended in 0.5% of methylcellulose in water by sonication. All drugs and vehicles were administered orally (p.o.) by gavage in a volume of 10 mL/kg.
The mice were ordered 5 weeks old and at the beginning of experiment their weight was 20±5 g. Animals were housed in groups of four in plastic cages at an ambient temperature of 21° C. to 23° C. with an automated 12/12 hours light/dark cycle and access to water and a commercial rodent food ad libitum.
Each experiment consisted of seven treatment groups with four animals per group. A total of 28 animals per experiment were used. Every two consecutive experiments (1 & 2, 3 & 4, 5 & 6 and 7 & 8) were exact replicas of each other. […] One treatment group of four animals in each experiment was a vehicle treated group. In addition to the vehicle treated group, the effects of DMI at 6 mg/kg, 12 mg/kg, 30 mg/kg, 60 mg/kg and 120 mg/kg and LOR at 5 mg/kg were tested in experiments 1 and 2. […] In experiments 5 and 6 the effects of DLX at 6 mg/kg, 12 mg/kg, 30 mg/kg, 60 mg/kg, 120 mg/kg and LOR at 5 mg/kg were tested. […]

SMILES: NS(=O)(=O)NC[C@H]1COc2cc(Cl)ccc2O1 [Compound #8, (2S)-(−)-N-(6-Chloro-2,3-dihydro-benzo[1,4]dioxin-2-ylmethyl)-sulfamide]
- ED50 (read-out: Immobility ED50): 5.6 mg/kg
- ED50 (read-out: Mobility ED50): 3.6 ± 2.9 mg/kg
- effect on immobility and mobility time in TST (7-min testing session): decreased immobility time and increased mobility time; also recorded: antidepressant-like activity
